US20020077352A1, “N-methyl-D-aspartate receptor antagonists” (priority 2000, published 2002)
Read-outs that look alike come from different tables or passages of the source.

Experiments:
NMDARs = assay: whole-cell patch clamp, NMDA-evoked currents in cultured mouse cortical neurons; assay type: cell-based
Protocol: NMDA (200 μM) alone, NMDA plus aqueous Salvia miltiorrhiza extract (100 μl in 10 ml Hanks solution) and NMDA plus 20 nM tanshinone IIA were applied for about 3 seconds (black bars) in the continuous presence of glycine (10 μM) and absence of Mg^2+.
The ordinate indicates the percent steady-state block of currents evoked by 200 μM NMDA plus 10 μM glycine in the absence of Mg^2+.
NMDA (100 μM) or increasing concentrations of NMDA (100 μM-1600 μM) plus tanshinone IIA (20 nM) were applied for about 3 seconds (indicated by the black bars) in the continuous presence of glycine (10 μM) and absence of Mg^2+,
I/V curves were constructed by subtracting the response in the presence of NMDA (200 μM) plus tanshinone from the control response during the application of NMDA alone for 2 seconds at membrane holding potentials from −60 mV to +60 mV. Data from 2 to 5 sweeps were averaged for each trace.
(§1) The whole-cell patch clamp technique was used in mouse cortical neuronal cultures in order to screen for NMDAR antagonists in Danshen, the root of Salvia milthiorriza Bunge. […] Tanshinones are plant-derived diterpenoid quinones.
The concentration dependence of the steady-state block of NMDA-induced currents was determined in order to obtain the dose/response curve of the NMDAR antagonist action of the tanshinones (FIG. 2). The data were fit according to a logistic equation and the concentration at which 50% of the NMDA-evoked response was blocked (IC50) was calculated from the equation.
Concentration-response curves were obtained in the presence of a saturating dose of tanshinone and increasing amounts of NMDA in cultured mouse cortical neurons (FIG. 3a).
The voltage-dependence of the inhibitory effects of the tanshinones was assessed by constructing current/voltage (I/V) plots in the presence or absence of the drugs (FIG. 3b).

[1] = target: T1, recombinant NMDARs composed of NR1 and NR2D subunits (Homo sapiens, UniProt O15399+Q05586); assay: NMDA-induced current in transiently transfected HEK293 cells expressing recombinant NR1/NR2D NMDARs; assay type: cell-based; conditions: for block of the NMDA-induced current, NR1/NR2D: 100 nM, co-application of NMDA and glycine, absence of Mg2+
T1 construct: expressed in transfected cells; host or cells: HEK293, transiently transfected
T1 sequence (O15399 28-1336, other chains not shown): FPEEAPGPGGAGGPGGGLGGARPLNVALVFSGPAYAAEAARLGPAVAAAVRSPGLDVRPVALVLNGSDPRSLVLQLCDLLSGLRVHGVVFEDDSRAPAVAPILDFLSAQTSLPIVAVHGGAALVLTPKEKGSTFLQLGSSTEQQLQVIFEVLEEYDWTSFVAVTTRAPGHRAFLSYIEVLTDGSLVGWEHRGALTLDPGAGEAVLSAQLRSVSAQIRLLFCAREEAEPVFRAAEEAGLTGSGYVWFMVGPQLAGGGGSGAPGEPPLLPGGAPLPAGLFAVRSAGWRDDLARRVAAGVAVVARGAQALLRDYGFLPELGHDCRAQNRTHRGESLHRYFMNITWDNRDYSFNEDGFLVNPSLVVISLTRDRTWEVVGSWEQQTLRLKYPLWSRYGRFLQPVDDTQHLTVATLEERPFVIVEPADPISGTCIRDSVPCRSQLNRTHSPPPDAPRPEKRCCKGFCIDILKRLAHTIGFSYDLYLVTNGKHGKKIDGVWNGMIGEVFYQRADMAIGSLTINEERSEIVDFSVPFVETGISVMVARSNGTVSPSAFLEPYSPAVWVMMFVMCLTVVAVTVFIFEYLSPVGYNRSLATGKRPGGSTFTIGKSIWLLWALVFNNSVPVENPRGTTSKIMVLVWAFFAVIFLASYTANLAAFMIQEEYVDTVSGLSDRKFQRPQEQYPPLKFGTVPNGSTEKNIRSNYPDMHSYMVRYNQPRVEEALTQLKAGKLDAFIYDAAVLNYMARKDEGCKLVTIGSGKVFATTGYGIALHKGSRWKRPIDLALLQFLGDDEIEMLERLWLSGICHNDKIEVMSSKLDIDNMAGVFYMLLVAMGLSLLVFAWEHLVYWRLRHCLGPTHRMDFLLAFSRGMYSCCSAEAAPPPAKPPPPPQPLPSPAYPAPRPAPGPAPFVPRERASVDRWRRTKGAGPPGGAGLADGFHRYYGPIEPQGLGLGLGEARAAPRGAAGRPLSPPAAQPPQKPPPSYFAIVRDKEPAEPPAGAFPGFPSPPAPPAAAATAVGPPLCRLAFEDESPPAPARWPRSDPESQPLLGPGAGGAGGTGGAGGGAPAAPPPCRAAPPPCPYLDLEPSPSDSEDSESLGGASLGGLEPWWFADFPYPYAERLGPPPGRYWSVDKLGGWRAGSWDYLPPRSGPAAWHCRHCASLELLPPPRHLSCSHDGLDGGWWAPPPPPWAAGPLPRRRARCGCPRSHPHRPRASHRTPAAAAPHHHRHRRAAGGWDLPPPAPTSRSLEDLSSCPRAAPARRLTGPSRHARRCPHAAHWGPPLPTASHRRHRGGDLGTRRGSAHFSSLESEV
Excerpt: (§2) This example also compared the blocking efficacy of the tanshinones in transiently transfected human embryonic kidney (HEK) 293 cells expressing recombinant NMDARs containing either the NR1/NR2B or NR1/NR2D subunit combinations.

[2] = tested on: central benzodiazepine receptors; conditions: cited from earlier work
AMPA receptors = assay: whole-cell patch clamp, currents activated by AMPA in mouse cultured cortical neurons; assay type: cell-based; conditions: AMPA 10 μM; 100 nM compound
Excerpt: as §1
(§3) The present example examined whether tanshinones inhibited currents of AMPA and GABAA receptors evoked by AMPA or GABA, respectively.

GABAA receptors = assay: whole-cell patch clamp, currents activated by GABA in cultured cortical neurons; assay type: cell-based, mouse; conditions: GABA 20 μM; n=3
Excerpt: as §1, §3

[3] = target: T2, recombinant NMDARs composed of the NR1 and NR2B subunits (Homo sapiens, UniProt Q05586+Q13224); assay: NMDA-induced current in transiently transfected HEK293 cells expressing recombinant NR1/NR2B NMDARs; assay type: cell-based
T2 construct: expressed in transfected cells; host or cells: HEK293, transiently transfected
T2 sequence (Q13224 27-1484, other chains not shown): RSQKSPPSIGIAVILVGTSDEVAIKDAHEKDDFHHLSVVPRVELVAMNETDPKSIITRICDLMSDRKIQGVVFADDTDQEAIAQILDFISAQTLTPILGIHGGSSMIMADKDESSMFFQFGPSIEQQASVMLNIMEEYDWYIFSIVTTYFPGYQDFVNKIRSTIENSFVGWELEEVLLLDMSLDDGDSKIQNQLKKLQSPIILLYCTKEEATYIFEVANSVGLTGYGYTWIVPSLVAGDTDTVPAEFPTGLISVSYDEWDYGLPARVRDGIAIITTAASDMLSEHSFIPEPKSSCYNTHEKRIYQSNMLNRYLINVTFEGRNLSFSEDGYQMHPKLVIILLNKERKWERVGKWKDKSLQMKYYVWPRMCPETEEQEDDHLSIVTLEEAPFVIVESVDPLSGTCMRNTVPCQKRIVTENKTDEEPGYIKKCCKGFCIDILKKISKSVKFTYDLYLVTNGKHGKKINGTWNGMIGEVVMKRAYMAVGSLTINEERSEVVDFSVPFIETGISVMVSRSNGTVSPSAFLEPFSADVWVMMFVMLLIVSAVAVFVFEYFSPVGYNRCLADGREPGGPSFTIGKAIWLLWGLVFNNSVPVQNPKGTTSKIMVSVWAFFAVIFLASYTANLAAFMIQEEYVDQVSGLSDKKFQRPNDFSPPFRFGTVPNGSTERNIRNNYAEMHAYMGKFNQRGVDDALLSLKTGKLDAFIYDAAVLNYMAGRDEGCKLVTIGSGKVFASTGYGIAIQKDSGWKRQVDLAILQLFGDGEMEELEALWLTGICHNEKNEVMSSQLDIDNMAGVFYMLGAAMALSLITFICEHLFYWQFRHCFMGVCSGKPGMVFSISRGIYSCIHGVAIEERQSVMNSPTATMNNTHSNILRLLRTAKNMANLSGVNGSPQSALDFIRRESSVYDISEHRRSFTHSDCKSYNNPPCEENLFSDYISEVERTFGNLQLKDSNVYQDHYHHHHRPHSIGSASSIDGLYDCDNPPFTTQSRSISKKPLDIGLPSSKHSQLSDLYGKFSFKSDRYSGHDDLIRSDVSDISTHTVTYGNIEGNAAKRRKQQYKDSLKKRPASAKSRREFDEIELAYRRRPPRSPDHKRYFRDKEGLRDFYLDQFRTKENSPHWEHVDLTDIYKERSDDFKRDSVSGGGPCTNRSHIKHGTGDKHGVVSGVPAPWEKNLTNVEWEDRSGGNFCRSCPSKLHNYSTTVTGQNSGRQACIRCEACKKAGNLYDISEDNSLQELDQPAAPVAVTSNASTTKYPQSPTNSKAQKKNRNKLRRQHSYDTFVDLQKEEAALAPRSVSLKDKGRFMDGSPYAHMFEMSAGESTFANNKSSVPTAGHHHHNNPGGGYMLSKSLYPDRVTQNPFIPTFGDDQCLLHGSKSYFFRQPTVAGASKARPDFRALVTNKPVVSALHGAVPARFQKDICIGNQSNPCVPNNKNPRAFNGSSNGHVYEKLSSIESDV
Excerpt: as §2

[4] = 200 μM NMDA plus 10 μM glycine, absence of Mg2+; 95% confidence interval given in brackets; read-out: IC50, steady-state block of NMDA-induced currents
[5] = I/V plots, holding potentials −60 mV to +60 mV
[6] = purified tanshinones, patch-clamp assay (20 nM, FIG. 1d)

Row | block of the NMDA-induced current, NR1/NR2D [1] | IC50 (NMDARs; [4]) | voltage-dependence of inhibition, NR2B containing receptors [3] | voltage-dependence of inhibition, NR2D containing receptors ([1]; greatly reduced efficacy at positive potentials) | SMILES | IC50 (NMDARs; read-out: IC50, steady-state block of NMDA-induced currents; 200 μM NMDA plus 10 μM glycine, absence of Mg2+; 95% confidence interval given in brackets) | voltage-dependence of inhibition of NMDA-induced whole-cell currents (NMDARs; [5]) | inhibition of the NMDA-induced currents (NMDARs; [6]) | activity at central benzodiazepine receptors [2] | mode of inhibition with respect to agonist NMDA and co-agonist glycine (NMDARs; fixed saturating dose of tanshinone (20 nM), increasing NMDA 100-1600 μM) | inhibition of currents activated by AMPA (AMPA receptors) | block of currents activated by GABA (GABAA receptors)
1 | 11±2% | 2.1 nM | – | – | CC(C)C1=Cc2ccc3c(c2C(=O)C1=O)CCCC3(C)C [miltirone] | – | voltage-independent | strong, but readily reversible inhibition | partial agonists | – | – | –
2 | 61±11% | 3.4 nM | voltage-independent | voltage-dependent | Cc1coc2c1C(=O)C(=O)c1c-2ccc2c1CCCC2(C)C [tanshinone IIA] | – | voltage-independent | strong, but readily reversible inhibition | – | non-competitive inhibition | 6±3% | 10±3%
3 | 52±11% | 1.1 nM | – | – | Cc1coc2c1C(=O)C(=O)c1c-2ccc2c1CCCC2(C)CO (stereo not drawn) [tanshinone IIB] | – | voltage-independent | strong, but readily reversible inhibition | – | – | – | –

Row | SMILES | block of the NMDA-induced current, NR1/NR2D [1] | IC50 (NMDARs; [4]) | voltage-dependence of inhibition, NR2B containing receptors [3] | voltage-dependence of inhibition, NR2D containing receptors ([1]; greatly reduced efficacy at positive potentials) | IC50 (NMDARs; read-out: IC50, steady-state block of NMDA-induced currents; 200 μM NMDA plus 10 μM glycine, absence of Mg2+; 95% confidence interval given in brackets) | voltage-dependence of inhibition of NMDA-induced whole-cell currents (NMDARs; [5]) | inhibition of the NMDA-induced currents (NMDARs; [6]) | activity at central benzodiazepine receptors [2] | mode of inhibition with respect to agonist NMDA and co-agonist glycine (NMDARs; fixed saturating dose of tanshinone (20 nM), increasing NMDA 100-1600 μM) | inhibition of currents activated by AMPA (AMPA receptors) | block of currents activated by GABA (GABAA receptors)
4 | C[C@H]1COC2=C1C(=O)C(=O)c1c2ccc2c1CCCC2(C)C [cryptotanshinone] | 10±1% | – | – | – | 1.7 nM | – | – | – | – | – | –
5 | Cc1coc2c1C(=O)C(=O)c1c-2ccc2c(C)cccc12 [tanshinone I] | 4±1% | 3.7 nM | – | – | – | voltage-independent | strong, but readily reversible inhibition | – | – | – | –
